Results published in patent US9029337B2, “Modulation of factor 7 expression” (Isis Pharmaceuticals, Inc., priority 2007, dated 2015).
Strand notation (5' to 3'): a small letter for the sugar, then the base; units joined by * are phosphorothioate-linked, units joined directly phosphodiester-linked; [ ] holds rarer units or linkages, { } end groups; capitals alone tell only the bases. e = 2'-O-(2-methoxyethyl) (MOE); [5mC] = 5-methylcytosine; d = 2'-deoxy (DNA)

Test system: human Factor 7 mRNA
Experiment: Antisense inhibition of human Factor 7 mRNA in HepB3 cells, 50 nM antisense oligonucleotide, lipofectin
Format: cell-based
Conditions: for % Inhibition: lipofectin, approximately 24 hours; for % Inhibition of human Factor 7 mRNA levels: gapmers targeted to nucleobases 4868 to 4899 of SEQ ID NO: 1, Table 8
How it was run: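 Percent inhibition, untreated cells as reference: derived from RNA collected about 24 hours post-transfection of 4,000-cell wells, with the human RTS 2927 primer probe set and adjustment for total RNA content (RIBOGREEN®).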

[1] = Table 1, 50 nM, relative to untreated control cells
[2] = oligonucleotides targeted to nucleobases 11830 to 11869 of SEQ ID NO: 1 (Table 9)
[3] = 50 nM antisense oligonucleotide, Factor 7 mRNA by real-time RT-PCR (RTS 2927), relative to untreated control
[4] = oligonucleotides targeted to nucleobases 15098 to 15122 of SEQ ID NO: 1 (Table 12)
[5] = oligonucleotides targeted to nucleobases 13760 to 13789 of SEQ ID NO: 1 (Table 10)

Substance: 422195 (antisense eA*e[5mC]*eT*dG*dA*dG*d[5mC]*dG*d[5mC]*dG*dG*dA*dA*dG*dA*dA*dG*eG*eG*eA) [compound 422195]
- % Inhibition (Table 6, 50 nM): 37%

Substance: 407653 (antisense eA*eA*eT*eA*eT*d[5mC]*dA*dT*dT*dG*dA*d[5mC]*dA*dA*dG*eG*eG*e[5mC]*eT*eG) [compound 407653]
- % Inhibition [1]: 21%

Substance: 407644 (antisense eG*eA*eG*eG*eA*d[5mC]*dA*dG*d[5mC]*dA*d[5mC]*dA*d[5mC]*dA*dT*eG*eG*eA*eG*eT) [compound 407644]
- % Inhibition [1]: 66%

Substance: 422251 (antisense eG*e[5mC]*dT*dG*dG*d[5mC]*dT*dG*dA*dG*dG*dA*dG*dA*d[5mC]*eA*eA*eT*eG*eG) [compound 422251]
- % Inhibition (human Factor 7 mRNA levels) [2]: 36%

Substance: 416464 (antisense eA*eA*e[5mC]*eA*eT*dG*dT*dA*d[5mC]*dT*d[5mC]*d[5mC]*dG*dT*dG*eA*eT*eA*eT*eT) [compound 416464]
- % Inhibition [3]: 53%

Substance: 407909 (antisense e[5mC]*e[5mC]*eA*eT*e[5mC]*d[5mC]*dG*dA*dG*dT*dA*dG*d[5mC]*d[5mC]*dG*eG*e[5mC]*eA*e[5mC]*eA) [compound 407909]
- % Inhibition [1]: 77%

Substance: 422190 (antisense eG*e[5mC]*eG*d[5mC]*dG*dG*dA*dA*dG*dA*dA*dG*dG*dG*dA*d[5mC]*dG*eG*eA*eA) [compound 422190]
- % Inhibition (Table 6, 50 nM): 12%

Substance: 407896 (antisense e[5mC]*eG*eT*eG*eT*dG*dG*dT*d[5mC]*dA*d[5mC]*dT*dG*d[5mC]*dA*eG*eT*eA*e[5mC]*eT) [compound 407896]
- % Inhibition [1]: 73%

Substance: 407894 (antisense eG*eT*eT*e[5mC]*e[5mC]*dG*dG*d[5mC]*d[5mC]*d[5mC]*dT*d[5mC]*dG*dA*dA*eG*eG*e[5mC]*eA*eG) [compound 407894]
- % Inhibition [1]: 77%

Substance: 422239 (antisense eG*eA*d[5mC]*dA*dA*dT*dG*dG*dT*d[5mC]*dA*dG*dG*dG*d[5mC]*eT*eG*eG*eT*eT) [compound 422239]
- % Inhibition (human Factor 7 mRNA levels) [2]: 67%

Substance: 407596 (antisense eG*eA*eG*eG*e[5mC]*d[5mC]*d[5mC]*d[5mC]*dG*dG*d[5mC]*dT*dT*d[5mC]*d[5mC]*eA*e[5mC]*eG*eG*e[5mC]) [compound 407596]
- % Inhibition [1]: 61%

Substance: 416433 (antisense eA*eG*eA*eA*eA*dT*d[5mC]*d[5mC]*dA*dG*dA*dA*d[5mC]*dA*dG*e[5mC]*eT*eT*e[5mC]*eG) [compound 416433]
- % Inhibition [3]: 0%

Substance: 422136 (antisense e[5mC]*eA*eG*e[5mC]*eA*d[5mC]*dA*d[5mC]*dA*dT*dG*dG*dA*dG*dT*e[5mC]*eA*eG*e[5mC]*eA) [compound 422136]
- % Inhibition (human Factor 7 mRNA levels) [4]: 57%

Substance: 416453 (antisense eG*eA*eT*eT*eT*dT*dG*dT*d[5mC]*dG*dA*dA*dA*d[5mC]*dA*eG*eT*eG*eG*eG) [compound 416453]
- % Inhibition [3]: 45%

Substance: 407617 (antisense eT*e[5mC]*e[5mC]*eA*e[5mC]*dA*dT*dG*dG*dA*dT*dA*dT*dT*d[5mC]*eA*eA*e[5mC]*eT*eG) [compound 407617]
- % Inhibition [1]: 67%

Substance: 422132 (antisense eG*e[5mC]*eA*eG*e[5mC]*d[5mC]*dT*dG*dA*dG*dG*d[5mC]*d[5mC]*dA*dG*e[5mC]*eA*eG*eA*eT) [compound 422132]
- % Inhibition (human Factor 7 mRNA levels) (oligonucleotides targeted to nucleobases 14707 to 14732 of SEQ ID NO: 1 (Table 11)): 54%

Substance: 422112 (antisense e[5mC]*e[5mC]*eA*e[5mC]*e[5mC]*d[5mC]*dG*d[5mC]*d[5mC]*dG*dG*d[5mC]*dT*d[5mC]*dT*eG*e[5mC]*eT*e[5mC]*eA) [compound 422112]
- % Inhibition (human Factor 7 mRNA levels) [5]: 61%

Substance: 416456 (antisense e[5mC]*eT*eG*e[5mC]*eG*d[5mC]*d[5mC]*dA*d[5mC]*d[5mC]*d[5mC]*dG*d[5mC]*d[5mC]*dG*eG*e[5mC]*eT*e[5mC]*eT) [compound 416456]
- % Inhibition [3]: 58%
- % Inhibition (human Factor 7 mRNA levels) [5]: 50%

Substance: 416546 (antisense e[5mC]*e[5mC]*eA*eG*eG*d[5mC]*dT*dG*dG*dT*dT*dT*dG*dG*dA*eG*eA*eA*eA*e[5mC]) [compound 416546]
- % Inhibition [3]: 21%

Substance: 416550 (antisense eT*eG*eG*e[5mC]*eT*dG*dG*d[5mC]*dT*dG*dA*dG*dG*dA*dG*eA*e[5mC]*eA*eA*eT) [compound 416550]
- % Inhibition [3]: 55%

Substance: 407634 (antisense eG*eT*eG*eA*e[5mC]*dT*dG*d[5mC]*dT*dG*d[5mC]*dA*dG*dG*d[5mC]*eA*eG*eT*e[5mC]*e[5mC]) [compound 407634]
- % Inhibition [1]: 24%

Substance: 422269 (antisense eG*eA*dG*d[5mC]*dG*d[5mC]*dG*dG*dA*dA*dG*dA*dA*dG*dG*eG*eA*e[5mC]*eG*eG) [compound 422269]
- % Inhibition (Table 6, 50 nM): 27%

Substance: 422156 (antisense eG*eG*eT*d[5mC]*dA*dG*dG*dG*d[5mC]*dT*dG*dG*dT*dT*dT*dT*dG*eG*eA*eG) [compound 422156]
- % Inhibition (human Factor 7 mRNA levels) [2]: 38%

Substance: 407943 (antisense eG*e[5mC]*eA*eG*eG*d[5mC]*dA*d[5mC]*d[5mC]*dA*d[5mC]*dA*dG*dG*dT*eG*eT*eG*e[5mC]*eG) [compound 407943]
- % Inhibition [1]: 34%

Substance: 422094 (antisense e[5mC]*eA*eA*eT*eG*dG*dT*d[5mC]*dA*dG*dG*dG*d[5mC]*dT*dG*eG*eT*eT*eT*eT) [compound 422094]
- % Inhibition (human Factor 7 mRNA levels) [2]: 48%

Substance: 422169 (antisense e[5mC]*eT*eG*dA*dG*dG*dA*dG*dA*d[5mC]*dA*dA*dT*dG*dG*dT*d[5mC]*eA*eG*eG) [compound 422169]
- % Inhibition (human Factor 7 mRNA levels) [2]: 56%

Substance: 422246 (antisense e[5mC]*eT*dG*dA*dG*dG*dA*dG*dA*d[5mC]*dA*dA*dT*dG*dG*eT*e[5mC]*eA*eG*eG) [compound 422246]
- % Inhibition (human Factor 7 mRNA levels) [2]: 46%

Substance: 422223 (antisense eG*eA*eG*d[5mC]*d[5mC]*d[5mC]*dG*dA*dG*dT*dT*d[5mC]*dT*dG*d[5mC]*dA*dG*eG*eA*eG) [compound 422223]
- % Inhibition of human Factor 7 mRNA levels: 48%

Substance: 422208 (antisense eG*e[5mC]*eA*d[5mC]*dA*d[5mC]*dA*dT*dG*dG*dA*dG*dT*d[5mC]*dA*dG*d[5mC]*eA*eT*e[5mC]) [compound 422208]
- % Inhibition (human Factor 7 mRNA levels) [4]: 56%

Substance: 422276 (antisense eG*eG*dT*dT*dA*d[5mC]*dT*dG*dA*dG*d[5mC]*dG*d[5mC]*dG*dG*eA*eA*eG*eA*eA) [compound 422276]
- % Inhibition (Table 6, 50 nM): 66%

Substance: 422261 (antisense eT*eG*d[5mC]*dG*d[5mC]*d[5mC]*dA*d[5mC]*d[5mC]*d[5mC]*dG*d[5mC]*d[5mC]*dG*dG*e[5mC]*eT*e[5mC]*eT*eG) [compound 422261]
- % Inhibition (human Factor 7 mRNA levels) [5]: 47%

Substance: 407903 (antisense e[5mC]*e[5mC]*eG*e[5mC]*eG*dG*dA*dG*dA*d[5mC]*d[5mC]*dA*d[5mC]*d[5mC]*d[5mC]*eA*eG*eA*eT*eG) [compound 407903]
- % Inhibition [1]: 98%

Substance: 422199 (antisense eG*eG*eT*dT*dA*d[5mC]*dT*dG*dA*dG*d[5mC]*dG*d[5mC]*dG*dG*dA*dA*eG*eA*eA) [compound 422199]
- % Inhibition (Table 6, 50 nM): 65%

Substance: 422126 (antisense eA*e[5mC]*eT*eG*eA*dG*d[5mC]*dG*d[5mC]*dG*dG*dA*dA*dG*dA*eA*eG*eG*eG*eA) [compound 422126]
- % Inhibition (Table 6, 50 nM): 22%

Substance: 416542 (antisense e[5mC]*eA*eG*eG*eG*dT*dG*d[5mC]*d[5mC]*d[5mC]*dA*dT*d[5mC]*d[5mC]*dT*eA*eG*eT*e[5mC]*eA) [compound 416542]
- % Inhibition [3]: 56%

Substance: 422145 (antisense eG*e[5mC]*e[5mC]*e[5mC]*eG*dA*dG*dT*dT*d[5mC]*dT*dG*d[5mC]*dA*dG*eG*eA*eG*e[5mC]*eG) [compound 422145]
- % Inhibition of human Factor 7 mRNA levels: 57%

Substance: 407932 (antisense eG*eA*eA*e[5mC]*e[5mC]*dA*dG*dA*dA*dA*dA*dG*dT*dG*dA*eG*eA*eG*e[5mC]*eT) [compound 407932]
- % Inhibition [1]: 55%

Substance: 422167 (antisense eG*eA*eG*dG*dA*dG*dA*d[5mC]*dA*dA*dT*dG*dG*dT*d[5mC]*dA*dG*eG*eG*e[5mC]) [compound 422167]
- % Inhibition (human Factor 7 mRNA levels) [2]: 53%

Substance: 407665 (antisense eG*eT*eT*eA*e[5mC]*dG*dA*dA*dG*dA*d[5mC]*dT*dG*dG*dG*eA*eA*eA*eT*eG) [compound 407665]
- % Inhibition [1]: 29%

Substance: 407613 (antisense eT*eG*e[5mC]*eT*e[5mC]*dA*d[5mC]*dA*dG*d[5mC]*d[5mC]*dG*d[5mC]*d[5mC]*dG*eT*eT*e[5mC]*eT*e[5mC]) [compound 407613]
- % Inhibition [1]: 66%

Substance: 416538 (antisense e[5mC]*eG*eT*eG*eG*dA*d[5mC]*dT*dG*dA*dT*d[5mC]*d[5mC]*dA*dA*eA*eG*eG*eA*e[5mC]) [compound 416538]
- % Inhibition [3]: 46%

Substance: 416485 (antisense eG*eA*eG*e[5mC]*eT*dA*d[5mC]*dA*dG*d[5mC]*d[5mC]*dT*d[5mC]*dA*dA*eA*e[5mC]*eA*eT*e[5mC]) [compound 416485]
- % Inhibition [3]: 7%

Substance: 422299 (antisense eA*eG*d[5mC]*d[5mC]*d[5mC]*dG*dA*dG*dT*dT*d[5mC]*dT*dG*d[5mC]*dA*eG*eG*eA*eG*e[5mC]) [compound 422299]
- % Inhibition of human Factor 7 mRNA levels: 64%

Substance: 416431 (antisense eA*eG*eG*eG*eA*dG*d[5mC]*d[5mC]*d[5mC]*dG*dG*d[5mC]*d[5mC]*dG*d[5mC]*eA*eG*e[5mC]*eT*e[5mC]) [compound 416431]
- % Inhibition [3]: 25%

Substance: 422214 (antisense eT*eT*e[5mC]*dT*dG*d[5mC]*dA*dG*dG*dA*dG*d[5mC]*dG*dG*d[5mC]*d[5mC]*dT*eA*eA*eA) [compound 422214]
- % Inhibition of human Factor 7 mRNA levels: 60%
